According to patent publication EP2987533B1, “7-substituted piperazin-1-yl fluoroquinolone compounds, their use in the treatment of cancer, pharmaceutical compositions and a method for preparation” (priority 2014, dated 2016):

Experiments:
CNS cancer = assay: NCI five-dose SRB assay, subpanel average; details: 48 h
A549/ATCC = assay: NCI one-dose SRB growth assay; format: cell-based; details: Homo sapiens; A549/ATCC (Non-Small Cell Lung Cancer), 10^-5 M, 48 h; read-out: % Growth Inhibition (GI %)
Description: (§1) A primary anticancer assay was performed for an approximately 60 human tumor cell line panel derived from nine neoplastic diseases, in accordance with the protocol of the Drug Evaluation Branch, National Cancer Institute, Bethesda, MD (Monks A. et al., J. Natl. Cancer Inst 1991, 83, 757-766; Boyd M.R. and Paull K.D., Drug. Dev. Res. 1995, 34, 91-109; Shoemaker R.H., Nat. Rev. Cancer 2006, 6, 813-823). Briefly, tested compounds were added to the culture at a single concentration (10^-5M), and the cultures were incubated for 48 h. End point determinations were made with a protein binding dye, sulforhodamine B (SRB). The results for each tested compound were reported as the growth percentage of the treated cells when compared to that of the untreated control cells. The percentage growth was evaluated spectrophotometrically versus controls not treated with test agents.

COLO 205 = assay: NCI one-dose SRB growth assay; format: cell-based; details: Homo sapiens; COLO 205 (Colon Cancer), 10^-5 M, 48 h; read-out: % Growth Inhibition (GI %)
Description: as §1

SNB-75 = assay: NCI one-dose SRB growth assay; format: cell-based; details: Homo sapiens; SNB-75 (CNS Cancer), 10^-5 M, 48 h; read-out: % Growth Inhibition (GI %)
Description: as §1

A498 = assay: NCI one-dose SRB growth assay; format: cell-based; details: Homo sapiens; A498 (Renal Cancer), 10^-5 M, 48 h; read-out: % Growth Inhibition (GI %)
Description: as §1

OVCAR-8 = assay: NCI one-dose SRB growth assay; format: cell-based; details: Homo sapiens; OVCAR-8 (Ovarian Cancer), 10^-5 M, 48 h; read-out: % Growth Inhibition (GI %)
Description: as §1

MALME-3M = assay: NCI one-dose SRB growth assay; format: cell-based; details: Homo sapiens; MALME-3M (Melanoma), 10^-5 M, 48 h; read-out: % Growth Inhibition (GI %)
Description: as §1

MDA-MB-435 = assay: NCI one-dose SRB growth assay; format: cell-based; details: Homo sapiens; MDA-MB-435 (Melanoma), 10^-5 M, 48 h; read-out: % Growth Inhibition (GI %)
Description: as §1

T-47D = assay: NCI one-dose SRB growth assay; format: cell-based; details: Homo sapiens, T47D; T-47D (Breast Cancer), 10^-5 M, 48 h; read-out: % Growth Inhibition (GI %)
Description: as §1

NCI-H23 = assay: NCI one-dose SRB growth assay; format: cell-based; details: Homo sapiens; NCI-H23 (Non-Small Cell Lung Cancer), 10^-5 M, 48 h; read-out: % Growth Inhibition (GI %)
Description: as §1

BT-549 = assay: NCI one-dose SRB growth assay; format: cell-based; details: Homo sapiens; BT-549 (Breast Cancer), 10^-5 M, 48 h; read-out: % Growth Inhibition (GI %)
Description: as §1

HOP-92 = assay: NCI one-dose SRB growth assay; format: cell-based; details: Homo sapiens; HOP-92 (Non-Small Cell Lung Cancer), 10^-5 M, 48 h; read-out: % Growth Inhibition (GI %)
Description: as §1

UACC-257 = assay: NCI one-dose SRB growth assay; format: cell-based; details: Homo sapiens; UACC-257 (Melanoma), 10^-5 M, 48 h; read-out: % Growth Inhibition (GI %)
Description: as §1

HT29 = assay: NCI one-dose SRB growth assay; format: cell-based; details: Homo sapiens, HT-29; HT29 (Colon Cancer), 10^-5 M, 48 h; read-out: % Growth Inhibition (GI %)
Description: as §1

RXF 393 = assay: NCI one-dose SRB growth assay; format: cell-based; details: Homo sapiens; RXF 393 (Renal Cancer), 10^-5 M, 48 h; read-out: % Growth Inhibition (GI %)
Description: as §1

LOX IMVI = assay: NCI one-dose SRB growth assay; format: cell-based; details: Homo sapiens; LOX IMVI (Melanoma), 10^-5 M, 48 h; read-out: % Growth Inhibition (GI %)
Description: as §1

prostate cancer = assay: NCI five-dose SRB assay, subpanel average; details: 48 h
[1] = system: 60 human tumor cell line panel; assay: NCI 60 cell line one-dose SRB primary anticancer assay; format: cell-based; details: 60 cell lines assay in one dose, 10µM (title; head prints 10.0 mM), 48 h; for inhibition at 10 µM: Homo sapiens, read-out: MGI % (Mean growth inhibition percentage)
Description: as §1

leukemia = assay: NCI five-dose SRB assay, subpanel average; details: 48 h
melanoma = assay: NCI five-dose SRB assay, subpanel average; details: 48 h
NSC lung cancer = assay: NCI five-dose SRB assay, subpanel average; details: 48 h
colon cancer = assay: NCI five-dose SRB assay, subpanel average; details: 48 h
renal cancer = assay: NCI five-dose SRB assay, subpanel average; details: 48 h
[2] = system: full panel of about 60 human tumor cell lines; assay: NCI five-dose SRB assay, full panel mean; details: 48 h
ovarian cancer = assay: NCI five-dose SRB assay, subpanel average; details: 48 h
MDA-MB-468 = assay: NCI one-dose SRB growth assay; format: cell-based; details: Homo sapiens; MDA-MB-468 (Breast Cancer), 10^-5 M, 48 h; read-out: % Growth Inhibition (GI %)
Description: as §1

[3] = Homo sapiens, read-out: GI50 (median growth inhibitory)
[4] = Homo sapiens, read-out: LC50 (median lethal)

`CCn1cc(C(=O)O)c(=O)c2cc(F)c(N3CCN(S(=O)(=O)c4ccc(Cl)cc4)CC3)cc21` [Compound 1a] was tested, and the GI50 (CNS cancer; [3]) was 3.57 µM, the CC50 (CNS cancer; [4]) was greater than 100 µM and the “TGI (total growth inhibitory)” value (CNS cancer; average over CNS cancer subpanel, five concentrations) was 70.26 µM. For the same compound, the inhibition at 10 µM (A549/ATCC) was 84.4%, the inhibition at 10 µM (COLO 205) was 87.9% and the inhibition at 10 µM (SNB-75) was 58.2%. For the same compound, the inhibition at 10 µM (A498) was greater than 100%, the inhibition at 10 µM (OVCAR-8) was 87.4% and the inhibition at 10 µM (MALME-3M) was 76.2%. The inhibition at 10 µM (MDA-MB-435) was 74.9%, the inhibition at 10 µM (T-47D) was 58.9% and the inhibition at 10 µM (NCI-H23) was greater than 100%. For the same compound, the inhibition at 10 µM (BT-549) was 87.4%, the inhibition at 10 µM (HOP-92) was greater than 100% and the inhibition at 10 µM (UACC-257) was 71%. The inhibition at 10 µM (HT29) was 92.1%, the inhibition at 10 µM (RXF 393) was 86.6% and the inhibition at 10 µM (LOX IMVI) was 80.1%. For the same compound, the GI50 (prostate cancer; [3]) was 3.21 µM, the CC50 (prostate cancer; [4]) was greater than 100 µM and the “TGI (total growth inhibitory)” value (prostate cancer; average over prostate cancer subpanel, five concentrations) was 54.11 µM. The “PCE (Positive cytotoxic effect: ratio between number of cell lines with percentage growth inhibition from 10 to >100 and total number of cell lines)” value [1] was 56/56, the “RGI % (Range of growth inhibition percentage)” value [1] was greater than 100.0 to 31.3% and the inhibition at 10 µM [1] was 75.6%. For the same compound, the GI50 (leukemia; [3]) was 2.89 µM, the CC50 (leukemia; [4]) was greater than 100 µM and the “TGI (total growth inhibitory)” value (leukemia; average over leukemia subpanel, five concentrations) was 80.96 µM. The GI50 (melanoma; [3]) was 2.56 µM, the CC50 (melanoma; [4]) was 89.7 µM and the “TGI (total growth inhibitory)” value (melanoma; average over melanoma subpanel, five concentrations) was 29.36 µM. For the same compound, the GI50 (NSC lung cancer; [3]) was 2.87 µM, the CC50 (NSC lung cancer; [4]) was greater than 100 µM and the “TGI (total growth inhibitory)” value (NSC lung cancer; average over NSC lung cancer subpanel, five concentrations) was 53.38 µM. The GI50 (colon cancer; [3]) was 3.38 µM, the CC50 (colon cancer; [4]) was 95.2 µM and the “TGI (total growth inhibitory)” value (colon cancer; average over colon cancer subpanel, five concentrations) was 73.15 µM. The GI50 (renal cancer; [3]) was 2.93 µM, the CC50 (renal cancer; [4]) was greater than 100 µM and the “TGI (total growth inhibitory)” value (renal cancer; average over renal cancer subpanel, five concentrations) was 54.00 µM. The CC50 ([2]; Homo sapiens, 60 cell, read-out: LC50 MG-MID (Full panel mean-graph midpoint)) was 95.5 µM, the GI50 ([2]; Homo sapiens, read-out: GI50 MG-MID (Full panel mean-graph midpoint)) was 2.95 µM and the “TGI MG-MID (Full panel mean-graph midpoint)” value ([2]; full panel, five concentrations) was 29.51 µM. For the same compound, the GI50 (ovarian cancer; [3]) was 3.16 µM, the CC50 (ovarian cancer; [4]) was greater than 100 µM and the “TGI (total growth inhibitory)” value (ovarian cancer; average over ovarian cancer subpanel, five concentrations) was 54.29 µM.

For `O=C(O)c1cn(C2CC2)c2cc(N3CCN(S(=O)(=O)c4ccc(Cl)cc4Cl)CC3)c(F)cc2c1=O` [Compound 2b], the inhibition at 10 µM (A549/ATCC) was less than 10%, the inhibition at 10 µM (COLO 205) was 11.9% and the inhibition at 10 µM (SNB-75) was 70.2%. It also gave an inhibition at 10 µM (A498) of 23.6%, an inhibition at 10 µM (OVCAR-8) of less than 10% and an inhibition at 10 µM (MALME-3M) of less than 10%. The inhibition at 10 µM (MDA-MB-435) was less than 10%, the inhibition at 10 µM (T-47D) was 26.4% and the inhibition at 10 µM (NCI-H23) was 16.8%. The inhibition at 10 µM (BT-549) was 13.7%, the inhibition at 10 µM (HOP-92) was less than 10% and the inhibition at 10 µM (MDA-MB-468) was 65.1%. For the same compound, the inhibition at 10 µM (UACC-257) was less than 10%, the inhibition at 10 µM (HT29) was less than 10% and the inhibition at 10 µM (RXF 393) was 67.7%. For the same compound, the inhibition at 10 µM (LOX IMVI) was 38.6%, the “PCE (Positive cytotoxic effect: ratio between number of cell lines with percentage growth inhibition from 10 to >100 and total number of cell lines)” value [1] was 30/58 and the “RGI % (Range of growth inhibition percentage)” value [1] was 79.75 to 11.78%. For the same compound, the inhibition at 10 µM [1] was 17.4%.
